Here are results for seven molecules from US9050375B2, “Bi-specific digoxigenin binding antibodies” (priority 2009, dated 2015).

“And” between values parts separate entries of the source, which are not always exact repeats. Identical values can stand only once. {Dig} = digoxigenin coupled through a C6 amino linker; {Cy5} = Cy5 fluorescent dye label; d = 2'-deoxy (DNA); m = 2'-O-methyl; r = 2'-OH (RNA)

Series [1] can be described thus: Excitation and emission spectra of Cy5, Dig-Cy5 and complex. It is filed as physicochemical. The source says: To evaluate whether digoxygenation of Cy5 alters its fluorescence features, we compared the excitation and emission spectra of Cy5 and compared it with the spectra of the newly generated Dig-Cy5 and with Dig-Cy5 within a complex with bispecific antibodies. […] We conclude that Dig-Cy5 and -complexes can be applied for antibody-mediated targeting and in vivo imaging.

In series [2] the test system is Eg5 mRNA in HeLa-S3 cells. Put plainly: Eg5 bDNA assay of transfected siRNAs. Type of series: cell-based, human. To be noted: Lipofectamine 2000 transfection, 24 hours. The source says: To evaluate whether additions or alterations of siRNAs by digoxygenin alters its biological activity, we performed in vitro assays in cell culture. For that, we chose to assess the activity of siRNA that inactivates the mRNA of Eg5. The direct effect of Eg5 siRNA activity is down-regulation of its cognate mRNA. This can be quantified by bDNA (branched DNA) assays, which detect the amount of specific mRNAs in cells (Burris et al., 1999, Molecular Endocrinology). To perform these assays, we seeded a defined number of the respective cell type into 96-well plates and allowed them to attach over night. The next day cells were transfected with desired amounts of a certain siRNA or treated with the agent whose effect on the mRNA-level should be analysed. After 24 hours the QuantiGene kit protocol was followed according to the instructions of the manufacturer (Affymetrix) in order to quantify the mRNA levels. Briefly, the cell lysates were transferred to a capture plate in the presence of a gene-specific probe set and then incubated at 53° C. over night. Wells were washed. They were then incubated at 53° C. sequentially with an Amplifier and an alkaline phosphatase-linked label probe with a wash between the incubations. After a final wash, the luminescent alkaline phosphatase substrate dioxitane was added and was incubated for 30 min at 53° C. The luminescence was detected using a InfiniteF200 luminescence reader (Tecan Austria, Gröding). The biological activity of siRNAs that target Eg5 can not only be determined by bDNA analyses, but also by the phenotype that is caused by Eg5 mRNA depletion in growing cells. Eg5 is a motor protein that belongs to the kinesin-like protein family. Eg5, also known as KSP (kinesin spindle protein), is essential for the formation of the bipolar mitotic spindle and is required for the proper separation of the spindle poles. Depletion of Eg5 leads to the formation of characteristic monoaster spindles and activates the spindle checkpoint. This causes a mitotic arrest that ultimately leads to apoptosis (Tao et. al., Molecular and cellular biology. 2007 January; 27(2):689-98) (Tao W. et. al., Cancer Cell. 2005; 8:49-59.) Because of that, inactivation of Eg5 by siRNA mediates in many cases a cytotoxic phenotype to cultured cells. Therefore, the biological activity of Eg5 siRNA can be analyzed by monitoring the number of living cells.
Table 7 summarizes the results of the bDNA and cytotox assays that we performed to compare the biological activities of transfected siRNAs with that of their transfected digoxygenated counterparts. For the bDNA assays, we seeded HeLa-S3 cells into 96-well plates and allowed them to attach over night. The next day cells were transfected with the indicated amounts of siRNA using the Lipofectamine™ 2000 transfection reagent according to the instructions of the manufacturer (Invitrogen). After 24 hours the QuantiGene kit protocol was followed according to the instructions of the manufacturer (Affymetrix) in order to quantify the mRNA levels of the Eg5 mRNA.

A further series relates to KPL-4 cells. The series can be described thus: Cytotox assay (CellTiter-Glo) of transfected siRNAs. It is filed as cell-based, human. To be noted: Dharmafect transfection, 48 hours. As to the method: To measure the number of living cells the CellTiter-Glo Luminescent Cell Viability Assay (Promega Madison, Wis.) assay was applied according to the protocol supplied by the manufacturer. In this assay the cells are lysed and a luminescent signal proportional to the ATP amount is generated. The ATP amount is directly proportional to the number of living cells. The 96 well plates were then analyzed in a InfiniteF200 luminescence reader (Tecan Austria, Gröding).
For the cytotox assays, KPL-4 cells were seeded at a density of 7000 cells per well in 96 well plates. The cells were incubated for 24 hours at 37° C., 5% CO2 and 85% humidity in RPMI with 10% FCS and L-Glutamine. The next day cells were transfected with the indicated amounts of siRNA using the Dharmafect transfection reagent according to the instructions of the manufacturer (Dharmacon). After 48 hours the cells were treated with the CellTiter-Glo-assay reagent according to the manufacturers instructions.
For orientation: In ATP-based viability assays light output follows the ATP content of the culture.

For a further series, the target named is Eg5-siRNA-DIG. Put plainly: SPR (Biacore) binding to mono-digoxygenated siRNA. Particulars: 25° C. (In SPR one partner is held on a chip, and binding of the other changes the refractive index at the surface.)
The next series concerns the target Eg5-siRNA-(2×)DIG. Put plainly: SPR (Biacore) binding to bi-digoxygenated siRNA. Particulars: 25° C., read-out: KD, binding of siRNA-(2x)DIG.
The test system of a further series is DIG-Myoglobin. Put plainly: SPR binding to mono-digoxygenated protein DIG-myoglobin. The protocol: (§1) For that, binding properties of the recombinant <Dig> derivatives were analyzed by surface plasmon resonance (SPR) technology using a Biacore T100 or Biacore 3000 instrument (GE Healthcare Bio-Sciences AB, Uppsala). This system is well established for the study of molecule interactions. It allows a continuous real-time monitoring of ligand/analyte bindings and thus the determination of association rate constants (ka), dissociation rate constants (kd), and equilibrium constants (KD) in various assay settings. SPR-technology is based on the measurement of the refractive index close to the surface of a gold coated biosensor chip. Changes in the refractive index indicate mass changes on the surface caused by the interaction of immobilized ligand with analyte injected in solution. If molecules bind to immobilized ligand on the surface the mass increases, in case of dissociation the mass decreases. To perform the binding studies capturing anti-human IgG antibody was immobilized on the surface of a CM5 biosensor chip using amine-coupling chemistry. Flow cells were activated with a 1:1 mixture of 0.1 M N-hydroxysuccinimide and 0.1 M 3-(N,N-dimethylamino)propyl-N-ethylcarbodiimide at a flow rate of 5 μl/min. […] A reference control flow cell was treated in the same way but with vehicle buffers only instead of the capturing antibody. Surfaces were blocked with an injection of 1 M ethanolamine/HCl pH 8.5. To compare the binding of the humanized protein variants with that of the murine <Dig> IgG from the original hybridoma 19-11, capturing anti-mouse IgG antibody was immobilized on the surface of a CM5 biosensor chip in the same fashion as described above for the anti-human IgG antibody. To evaluate the functionality of the recombinant <Dig> derivatives, binding of the recombinant hu<Dig> modules, incl. (i) humanized IgG, (ii) fusion proteins harboring hu<Dig> scFv or (iii) disulfide-stabilized scFvs was assayed with different digoxygenated antigens The resulting binding affinities were compared to the binding of the murine ‘wildtype’ DIG-IgG from which the recombinant humanized modules were derived.
Another SPR study was performed in which the binding affinity of <DIG>-hu2, IGF1R-DIG and <DIG> M-19-11 was compared in terms of binding to the mono-digoxygenated protein DIG-myoglobin.

Another series addresses DIG-siRNA2349. The series can be described thus: SPR binding to DIG-siRNA2349. To be noted: analyte DIG-siRNA2349; replicate lines; listed as <DIG>M-19-11. As to the method: as §1, with “derived. […]” for “derived.”
[3] abbreviates: analyte DIG-Myoglobin, replicate lines, listed as <DIG>M-19-11.

Description for Eg5-siRNA-(2×)DIG: (§2) For that, binding properties of the recombinant <Dig> derivatives were analyzed by surface plasmon resonance (SPR) technology using a Biacore T100 or Biacore 3000 instrument (GE Healthcare Bio-Sciences AB, Uppsala). […] To perform the binding studies capturing anti-human IgG antibody was immobilized on the surface of a CM5 biosensor chip using amine-coupling chemistry. Flow cells were activated with a 1:1 mixture of 0.1 M N-hydroxysuccinimide and 0.1 M 3-(N,N-dimethylamino)propyl-N-ethylcarbodiimide at a flow rate of 5 μl/min. […] A reference control flow cell was treated in the same way but with vehicle buffers only instead of the capturing antibody. Surfaces were blocked with an injection of 1 M ethanolamine/HCl pH 8.5. […]
(§3) Anti-mouse IgG antibody was immobilized on the surface of a CM5 biosensor chip in the same fashion as described above. […] The samples to be analyzed were diluted in HBS-P (10 mM HEPES, pH 7.4, 150 mM NaCl, 0.005% Surfactant P20) and injected at a flow rate of 5 μl/min. […] Signals were detected at a rate of one signal per second.
(§4) The samples to be analyzed were diluted in HBS-P and injected at a flow rate of 5 μl/min. […]
Description for Eg5-siRNA-DIG: as §2, §3, §4

With Cy5 [reference compound], in series [1], the “Emission wavelength (max.)” value is on record as “at 670 nm” and the Excitation wavelength was 575-605 nm.
For “Dig-Eg5 siRNA: mono-digoxygenated Eg5 siRNA, Seq. ID NO. 25/32 (chain 1 CUGAAGACCUGAAGACAAUUU; chain 2 AUUGUCUUCAGGUCUUCAGUU; chain 1: 2'-O-methyl at CU, RNA at AG, 3' {Dig}, backbone not given here; chain 2: RNA, backbone not given here; further chemistry not fully specified)”, the half-inhibitory concentration (IC50) turned out to be 0.035 nM in series [2] and 4 nM with KPL-4 cells.
With “Dig-Eg5-Cy5 siRNA: digoxygenated Cy5-labeled Eg5 siRNA, Seq. ID NO. 27/34 (chain 1 CUGAAGACCUGAAGACAAUUU; chain 2 AUUGUCUUCAGGUCUUCAGUU; chain 1: RNA, 5' {Cy5}, 3' {Dig}, backbone not given here; chain 2: RNA, backbone not given here)”, the IC50 was determined as 0.013 nM in series [2] and 215 nM with KPL-4 cells.
Turning to “Dig-Luciferase siRNA: digoxygenated luciferase siRNA, Seq. ID NO. 23/30 (chain 1 CUUACGCUGAGUACUUCGATT; chain 2 UCGAAGUACUCAGCGUAAGTT; chain 1: DNA at T, 2'-O-methyl at CU, RNA at AG, 3' {Dig}, backbone not given here; chain 2: sugars from the 5' end rrrrrrmrrrmrrrrmrrrdd, backbone not given here; further chemistry not fully specified)”, the IC50 in series [2] is > 100 nM.
“Eg5 siRNA: siRNA targeting Eg5, Seq. ID NO. 24/31 (chain 1 CUGAAGACCUGAAGACAAUUU; chain 2 AUUGUCUUCAGGUCUUCAGUU; chain 1: sugars from the 5' end r18 m3, backbone not given here; chain 2: RNA, backbone not given here)”: the IC50 was found to be 0.016 nM in series [2] and 28 nM in the series with KPL-4 cells.
As to “Luciferase siRNA: control siRNA, Seq. ID NO. 22/29 (chain 1 CUUACGCUGAGUACUUCGATT; chain 2 UCGAAGUACUCAGCGUAAGTT; chain 1: DNA at T, 2'-O-methyl at CU, RNA at AG, backbone not given here; chain 2: sugars from the 5' end rrrrrrmrrrmrrrrmrrrdd, backbone not given here) [reference compound]”, the 50% inhibitory concentration (IC50) in series [2] is > 100 nM.

B1: murine DIG-IgG 19-11: hybridoma clone 19-11 derived murine anti-digoxigenin IgG1 kappa; VL Seq. ID. NO. 1, VH Seq. ID. NO. 2 (antibody, listed as Mus musculus, V domains shown)
VH: MNFVLSLIFLALILKGVQCEVQLVESGGGLVKPGGSLKLSCAVSGFTFSDYAMSWIRQTPENRLEWVASINIGATYAYYPDSVKGRFTISRDNAKNTLFLQMSSLGSEDTAMYYCARPGSPYEYDKAYYSMAYWGPGTSVTVSS
VL: MSSAQFLGLLLLCFQGTRCDVQMTQSTSSLSASLGDRVTISCRASQDIKNYLNWYQQKPGGTVKLLIYYSSTLLSGVPSRFSGRGSGTDFSLTITNLEREDIATYFCQQSITLPPTFGGGTKLEIK
notes: hybridoma clone 19-11 derived murine anti-digoxigenin IgG1 kappa; ID; NO
B1: the Kd at Eg5-siRNA-DIG was 0.269 nM; at Eg5-siRNA-(2×)DIG it was 0.017 nM; at DIG-siRNA2349, 0.276 nM and 0.371 nM. The “affinity to DIG-Myo compared with <DIG>-hu2 and disulfide-stabilized <DIG> scFv” value in the series with DIG-Myoglobin (SPR) was “about a hundred fold better”. Also, the ka is 1.75e+06 M⁻¹ s⁻¹ and 2.28e+06 M⁻¹ s⁻¹ in the series with DIG-Myoglobin (setting [3]); 3.27e+06 M⁻¹ s⁻¹ and 2.26e+06 M⁻¹ s⁻¹ in the series on DIG-siRNA2349. The kd is 0.000676 s⁻¹ and 0.000675 s⁻¹ on DIG-Myoglobin (setting [3]); 0.000903 s⁻¹ and 0.000838 s⁻¹ at DIG-siRNA2349.

The IC50 is the concentration that gives 50% inhibition. Read a low IC50 as greater potency in that assay. The term Kd denotes a measure of binding affinity in units of concentration.
